# Measurements taken from patent publication US11311522B1 (Cavion, Inc., priority 2018, dated 2022).
# Values joined by “and” are separate entries in the source; they are usually repeats but may differ in a detail not shown here. Equal values may be shown once.
# Assays:
# Cav3.3 = molecular target: T1, Cav3.3 (Homo sapiens, UniProt Q9P0X4); assay: Cav3.3 whole-cell voltage-clamp; type: cell-based
# T1 construct: expressed in transfected cells; host or cells: HEK 293
# [1] = molecular target: cannabinoid 2 receptor (CB2) (Homo sapiens, UniProt P34972); assay: Cannabinoid 2 receptor binding
# hERG = molecular target: T2, hERG (Homo sapiens, UniProt Q12809); assay: hERG PatchXpress assay; type: cell-based; conditions: doses up to 30 μM
# T2 construct: expressed in transfected cells; host or cells: CHO-K1
# cardiovascular function = assay: Cardiovascular function in anesthetized vagotomized dogs, IV; type: in vivo, dog; conditions: 10 mg/kg IV
# [2] = Excretion of 14C-labeled CX-8998 in rats; type: in vivo, rat; conditions: 20 mg/kg oral
# Description: Glucuronide conjugates of the oxygenated metabolites are detected in human, monkey, and dog hepatocyte preparations. […] However, the abundance of CYP3A5, CYP2C19, and CYP2D6 in human liver microsomes is low (2%-5%) relative to the primary contributors, CYP3A4 (˜30%) and CYP2C9 (˜20%). […] Information on reproductive and developmental toxicology was obtained in a 28-day pivotal female fertility study in rats and in preliminary embryo-fetal development studies in rats and rabbits.
# [3] = tested on: T3, CYP3A4, CYP2C8, CYP2C9, CYP2D6, CYP1A2, CYP2C19, CYP2B6; assay: CYP inhibition in human liver microsomes; type: in vitro ADME; conditions: human, human liver microsomes
# T3 construct: other: human liver microsomes; other: human microsomes
# [4] = tested on: T4, major CYP isoforms (CYP1A2, CYP3A4, CYP2C8, CYP2C9, CYP2C19, CYP2D6, CYP2B6); assay: CYP inhibition in human liver microsomes; type: in vitro ADME; conditions: human liver microsomes; human microsomes
# T4 construct: other: human liver microsomes; other: human microsomes
# [5] = PN005: safety and tolerability; type: in vivo, human
# Description: The visual disturbances tended to cease with eye opening and to recur with eye closure and were generally not disturbing to the subjects. […] No serious adverse events were reported, and none of the subjects discontinued treatment because of an adverse event. […] 5.3.3.1.3.2 Other Safety Assessments No clinically significant trends in safety laboratory parameters or vital signs were observed. […] No changes of ≥60 msec from baseline occurred, and no subject has a QTc interval ≥500 msec. […] The most common adverse events were headache, vivid dreams, and visual and/or auditory disturbances or hallucinations (typically described as seeing geometric shapes, colors, lights, and/or movement and hearing tones like from a telephone or electronic music). […] Clinical safety was monitored throughout the study by adverse events, clinical laboratory tests, vital signs, ECGs, and ECG telemetry.
# [6] = tested on: patients with schizophrenia; assay: PN004: efficacy in acutely psychotic patients with schizophrenia (PANSS); conditions: human, in vivo
# Description: The primary efficacy endpoint was the mean change from baseline in the Positive and Negative Syndrome Scale (PANSS) total score at Week 4; secondary efficacy endpoints included responder rates on the PANSS total score at Week 4 and the change from baseline in the Clinical Global Impressions—Severity of Illness Scale at Week 4. Safety was monitored by adverse events, laboratory evaluations, ECGs, Holter monitoring, vital signs, the Simpson-Angus Scale, the Barnes Akathisia Rating Scale, the Abnormal Involuntary Movement Scale, and the Columbia Suicide-Severity Rating scale (C-SSRS).
# [7] = doses up to 6000 μg/plate
# [8] = 4-week oral toxicology in rats (with FOB); conditions: for NOAEL at 4 weeks / AUC / Cmax: rat; for NOAEL at 4 weeks: in vivo; for AUC / Cmax: plasma, Day 28, mean (SD)
# [9] = tested on: T5, guinea pig adenosine transporter; assay: Adenosine transporter inhibition; type: biochemical; conditions: 10 μM
# T5 construct: other: 10 μM
# [10] = single dose 8 mg, N = 7, middle-aged and elderly female subjects, Study PN005
# [11] = Sprague-Dawley rat, 30, 300, or 2000 mg/kg/day oral gavage for 4 weeks
# T1 sequence (Q9P0X4 whole entry, species assumed): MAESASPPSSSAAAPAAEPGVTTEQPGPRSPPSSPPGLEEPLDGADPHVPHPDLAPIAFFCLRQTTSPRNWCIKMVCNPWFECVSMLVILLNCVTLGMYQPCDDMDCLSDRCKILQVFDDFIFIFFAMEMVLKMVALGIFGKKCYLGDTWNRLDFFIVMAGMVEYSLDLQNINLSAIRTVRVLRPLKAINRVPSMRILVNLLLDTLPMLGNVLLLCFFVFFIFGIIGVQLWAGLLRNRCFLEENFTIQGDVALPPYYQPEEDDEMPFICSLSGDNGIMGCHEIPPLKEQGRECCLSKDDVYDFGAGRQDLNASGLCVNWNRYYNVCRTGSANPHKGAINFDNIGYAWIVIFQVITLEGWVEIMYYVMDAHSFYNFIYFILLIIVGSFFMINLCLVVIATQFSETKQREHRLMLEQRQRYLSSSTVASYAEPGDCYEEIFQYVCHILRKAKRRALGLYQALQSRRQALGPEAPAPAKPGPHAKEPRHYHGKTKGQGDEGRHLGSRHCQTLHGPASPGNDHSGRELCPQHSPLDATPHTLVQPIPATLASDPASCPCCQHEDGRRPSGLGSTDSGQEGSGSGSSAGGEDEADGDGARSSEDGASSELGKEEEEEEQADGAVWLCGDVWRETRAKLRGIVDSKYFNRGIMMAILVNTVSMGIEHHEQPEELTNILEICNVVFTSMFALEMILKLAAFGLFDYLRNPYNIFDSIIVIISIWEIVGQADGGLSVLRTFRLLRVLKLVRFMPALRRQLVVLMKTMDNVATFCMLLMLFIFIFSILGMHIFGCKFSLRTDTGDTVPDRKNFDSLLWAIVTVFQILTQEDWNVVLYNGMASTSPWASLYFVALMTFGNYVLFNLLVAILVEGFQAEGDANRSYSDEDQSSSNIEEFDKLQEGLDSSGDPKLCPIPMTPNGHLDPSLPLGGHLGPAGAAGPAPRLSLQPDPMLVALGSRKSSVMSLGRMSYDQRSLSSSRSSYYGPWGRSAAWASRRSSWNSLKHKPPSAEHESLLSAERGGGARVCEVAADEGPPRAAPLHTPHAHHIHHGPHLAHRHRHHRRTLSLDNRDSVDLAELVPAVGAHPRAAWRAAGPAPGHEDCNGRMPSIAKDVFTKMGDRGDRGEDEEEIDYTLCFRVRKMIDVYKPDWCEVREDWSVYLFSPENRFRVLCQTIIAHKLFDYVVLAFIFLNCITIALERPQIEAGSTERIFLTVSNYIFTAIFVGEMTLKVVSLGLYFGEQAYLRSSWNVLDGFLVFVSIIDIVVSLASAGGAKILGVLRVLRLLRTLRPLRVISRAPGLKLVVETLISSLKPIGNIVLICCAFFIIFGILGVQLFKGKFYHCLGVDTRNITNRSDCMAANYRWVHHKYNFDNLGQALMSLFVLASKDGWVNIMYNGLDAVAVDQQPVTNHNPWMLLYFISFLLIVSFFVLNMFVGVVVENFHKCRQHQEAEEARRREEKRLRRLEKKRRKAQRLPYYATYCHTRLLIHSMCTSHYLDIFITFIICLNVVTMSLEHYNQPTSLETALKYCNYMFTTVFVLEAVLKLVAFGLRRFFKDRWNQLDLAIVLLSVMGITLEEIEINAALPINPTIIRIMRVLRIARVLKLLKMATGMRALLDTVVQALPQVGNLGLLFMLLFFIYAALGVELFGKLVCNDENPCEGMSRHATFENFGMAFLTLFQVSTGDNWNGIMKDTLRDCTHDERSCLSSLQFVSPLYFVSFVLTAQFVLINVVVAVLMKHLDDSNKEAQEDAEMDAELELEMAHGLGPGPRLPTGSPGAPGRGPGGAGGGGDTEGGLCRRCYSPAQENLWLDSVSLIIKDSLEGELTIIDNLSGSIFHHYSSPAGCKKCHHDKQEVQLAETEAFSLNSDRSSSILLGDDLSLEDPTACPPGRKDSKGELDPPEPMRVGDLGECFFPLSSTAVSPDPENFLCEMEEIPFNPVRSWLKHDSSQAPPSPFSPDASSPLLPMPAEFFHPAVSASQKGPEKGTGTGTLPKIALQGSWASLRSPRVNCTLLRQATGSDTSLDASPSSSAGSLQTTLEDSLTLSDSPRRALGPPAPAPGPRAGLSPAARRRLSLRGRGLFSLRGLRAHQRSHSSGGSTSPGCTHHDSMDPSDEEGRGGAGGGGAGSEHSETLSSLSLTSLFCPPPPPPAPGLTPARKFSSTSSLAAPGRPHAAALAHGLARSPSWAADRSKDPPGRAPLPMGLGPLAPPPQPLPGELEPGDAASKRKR
# T2 sequence (Q12809 whole entry): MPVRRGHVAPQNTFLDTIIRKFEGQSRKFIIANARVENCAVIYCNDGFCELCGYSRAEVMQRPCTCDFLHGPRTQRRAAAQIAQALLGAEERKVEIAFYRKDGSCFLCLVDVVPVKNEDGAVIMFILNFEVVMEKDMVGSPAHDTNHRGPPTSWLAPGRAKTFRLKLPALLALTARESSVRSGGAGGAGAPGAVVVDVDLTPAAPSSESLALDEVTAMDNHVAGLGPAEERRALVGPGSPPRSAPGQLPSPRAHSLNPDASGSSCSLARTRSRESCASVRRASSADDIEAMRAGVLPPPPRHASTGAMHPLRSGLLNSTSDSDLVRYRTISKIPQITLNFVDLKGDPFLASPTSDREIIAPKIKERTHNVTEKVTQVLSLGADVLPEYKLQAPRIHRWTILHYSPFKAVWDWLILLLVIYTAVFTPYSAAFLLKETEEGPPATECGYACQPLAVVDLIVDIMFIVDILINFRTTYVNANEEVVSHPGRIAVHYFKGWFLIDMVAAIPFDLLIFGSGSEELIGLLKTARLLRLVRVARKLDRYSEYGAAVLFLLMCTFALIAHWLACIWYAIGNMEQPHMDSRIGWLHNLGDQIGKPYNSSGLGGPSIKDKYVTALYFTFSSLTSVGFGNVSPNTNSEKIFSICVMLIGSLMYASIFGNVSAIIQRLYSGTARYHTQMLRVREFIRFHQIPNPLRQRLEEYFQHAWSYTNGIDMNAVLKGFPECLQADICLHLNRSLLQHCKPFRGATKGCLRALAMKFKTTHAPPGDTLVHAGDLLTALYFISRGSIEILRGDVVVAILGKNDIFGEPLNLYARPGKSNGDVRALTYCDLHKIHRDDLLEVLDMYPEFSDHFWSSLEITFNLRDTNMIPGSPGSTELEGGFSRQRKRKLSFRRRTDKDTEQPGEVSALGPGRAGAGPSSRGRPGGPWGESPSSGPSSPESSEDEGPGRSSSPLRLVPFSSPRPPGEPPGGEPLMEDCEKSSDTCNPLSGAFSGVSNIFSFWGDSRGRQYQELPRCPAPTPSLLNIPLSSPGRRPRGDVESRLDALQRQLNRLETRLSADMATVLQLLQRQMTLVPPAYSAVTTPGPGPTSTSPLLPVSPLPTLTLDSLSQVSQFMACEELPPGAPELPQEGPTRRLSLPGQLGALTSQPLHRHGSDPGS
# Sequence of cannabinoid 2 receptor (CB2) (P34972 whole entry, species assumed): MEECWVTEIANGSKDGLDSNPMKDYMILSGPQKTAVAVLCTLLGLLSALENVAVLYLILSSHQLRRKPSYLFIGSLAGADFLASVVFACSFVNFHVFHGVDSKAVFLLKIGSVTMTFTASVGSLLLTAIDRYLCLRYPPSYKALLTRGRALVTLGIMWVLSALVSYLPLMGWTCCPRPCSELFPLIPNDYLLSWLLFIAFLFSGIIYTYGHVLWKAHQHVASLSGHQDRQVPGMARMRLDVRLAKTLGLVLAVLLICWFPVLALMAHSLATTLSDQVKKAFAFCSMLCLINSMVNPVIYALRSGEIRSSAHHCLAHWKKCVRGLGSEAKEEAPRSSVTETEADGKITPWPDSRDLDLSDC
structure (smiles),measurement,setting,value
CC(C)c1ccc(CC(=O)N[C@H](C)c2ccc(OCC(F)(F)F)cn2)cc1 [CX-8998],IC50,Cav3.3; Vh −80 mV,~0.084 µM and 0.084 µM
same,IC50,Cav3.3; Vh=−100 mV,~2.4 µM and 2.4 µM
same,inhibition at 10 µM,[1]; 10 μM,53%
same,IC50,[1]; calculated,5.34 µM
same,IC50,hERG,28 µM
same,IC20,"hERG; human, CHO-K1 cells expressing hERG",8.7 µM
same,Decrease in mean arterial pressure,cardiovascular function,15%
same,Increase in PR interval,cardiovascular function,7%
same,Dose excreted in feces as unchanged drug,[2],Less than 1%
same,Radioactivity in feces,[2],approximately 5%
same,Radioactivity recovered in bile,[2],46%
same,Radioactivity recovered in urine,[2],43%
same,Recovered radioactivity excreted in the first day,[2],> 85%
same,Recovery of label after 72 hours,[2],~96%
same,IC50,[3],20 to 25 µM
same,IC50,[4],> 25 µM
same,Tolerability,[5]; single 8 mg dose,well tolerated
same,Alanine aminotransferase increased,[5]; [10],1 (14.3) n (%)
same,At least 1 adverse event,[5]; [10],6 (85.7) n (%)
same,Dry mouth,[5]; [10],1 (14.3) n (%)
same,Eye Disorders,[5]; [10],1 (14.3) n (%)
same,Gastrointestinal Disorders,[5]; [10],3 (42.9) n (%)
same,Hot flush,[5]; [10],1 (14.3) n (%)
same,Hypoaesthesia oral,[5]; [10],1 (14.3) n (%)
same,Inappropriate laughter,[5]; [10],2 (28.6) n (%)
same,Infections and Infestations,[5]; [10],1 (14.3) n (%)
same,Investigations,[5]; [10],1 (14.3) n (%)
same,Irritability,[5]; [10],1 (14.3) n (%)
same,Nausea,[5]; [10],1 (14.3) n (%)
same,Nervousness,[5]; [10],1 (14.3) n (%)
same,Psychiatric Disorders,[5]; [10],4 (57.1) n (%)
same,Racing thoughts,[5]; [10],1 (14.3) n (%)
same,Shingles,[5]; [10],1 (14.3) n (%)
same,Vascular Disorders,[5]; [10],1 (14.3) n (%)
same,Vision blurred,[5]; [10],1 (14.3) n (%)
same,Vomiting,[5]; [10],1 (14.3) n (%)
same,PANSS total score change at Week 4 and secondary endpoints vs placebo,[6],No statistically significant differences
same,Ames assay result,[7],negative
same,FOB findings,[8]; [11],non-adverse FOB changes were also
same,female reproductive organ findings (extended diestrus),[8]; [11],Reversible changes
same,NOEL,[8]; both sexes,< 30 mg/kg/day
same,NOAEL at 4 weeks,"[8]; both, Sprague-Dawley, po",30 mg/kg
same,LOEL for the FOB,"[8]; female rats, Day 1",30 mg/kg/day
same,NOAEL at 4 weeks,"[8]; female, oral",< 30 mg/kg/day
same,AUC,"[8]; female, po, 300 mg/kg/day, AUC24, Female rats, 300 mg/kg/day oral gavage",438 µM·h
same,Cmax,"[8]; female, po, 300 mg/kg/day, Female rats, 300 mg/kg/day oral gavage",28.3 µM
same,Cmax,"[8]; female, po, 2000 mg/kg/day, Female rats, 2000 mg/kg/day oral gavage",33.5 µM
same,NOAEL at 4 weeks,"[8]; male, oral",30 mg/kg/day
same,AUC,"[8]; male, po, 30 mg/kg/day, AUC24, Male rats, 30 mg/kg/day oral gavage",35.1 µM·h
same,Cmax,"[8]; male, po, 300 mg/kg/day, Male rats, 300 mg/kg/day oral gavage",26.1 µM
same,AUC,"[8]; male, po, 2000 mg/kg/day, AUC24, Male rats, 2000 mg/kg/day oral gavage",467 µM·h
same,Cmax,"[8]; male, po, 2000 mg/kg/day, Male rats, 2000 mg/kg/day oral gavage",28.9 µM
C=C(C)c1ccc(CC(=O)N[C@H](C)c2ccc(OCC(F)(F)F)cn2)cc1 [M01],Inhibition,[9],79%
